Experimental data as given in US20240277717A1, “APPLICATION OF GANCICLOVIR IN PREPAPRATION OF MEDICINE FOR TREATING ALLERGIC RHINITIS” (Union Hospital, Tongji Medical College, Huazhong University …, priority 2023, published 2024).
Entries after “also recorded” stand apart in the source; their conditions may differ.

Tests used:
[1] = test system: IL-2, IL-4, IL-5, IL-6, IL-13, IL-17A, IL-28A, IL-33, IFN-α, IFN-β, IFN-γ, IFN-λ, Eotaxin in the nasal secretions; test: Cytokine levels in the nasal secretions measured by Luminex; assay type: in vivo, human; conditions: for IL-2 in nasal secretions, after treatment: mean ± SD
Experimental: (§1) Two pieces of 1.0 centimeter (cm)×1.5 cm sterile medical sponge are gently placed into the patient's bilateral nasal cavity for 1-5 minutes (min). After the sponge adsorbs enough the nasal secretions, the sponge is gently removed and put into a 2 milliliters (mL) syringe. The nasal secretions are squeezed out and collected in a 1.5 mL centrifuge tube, centrifuged at 3000 revolutions per minute (rpm) for 5 min, and the supernatant is taken and placed in a refrigerator at −80° C. for testing. Eosinophil cationic protein (ECP) in the nasal secretions is detected by enzyme-linked immunosorbent assay (ELISA). The ECP-ELISA kit is from Zhongmin Taike Biotechnology Co., Ltd. Cytokine levels of interleukin (IL)-2, IL-4, IL-5, IL-6, IL-13, IL-17A, IL-28A, IL-33, interferon (IFN)-α, IFN-β, IFN-γ, IFN-λ, and Eotaxin in the nasal secretions are measured by using Luminex (R&D; LXSAHM-13).

[2] = test system: Eosinophil cationic protein (ECP); test: ECP in the nasal secretions by ELISA; assay type: in vivo, human
Experimental: as §1

[3] = test system: eosinophils in nasal secretions; test: Nasal secretion smears, percentage of eosinophils in inflammatory cells; assay type: in vivo, human
Text: The patients blow their nose (both sides), or gently rotate a glass rod at a front end of the patients' nasal vestibule to obtain the nasal secretions, avoiding rubbing the mucosal surface as much as possible. The obtained nasal secretions are evenly and lightly coated on slides, and a coverage area of the nasal secretion smear is required to exceed ⅔ of the slides. After natural air drying, the slides are dyed with Wright-Giemsa stain (Baso Diagnostics Inc. Zhuhai; China). After dyeing, cells are counted under an optical microscope. A percentage of eosinophils in inflammatory cells under 10×100 times microscope is observed, and an average value of 5 visual fields is taken as a result.

[4] = test system: peripheral blood mononuclear cells (PBMCs); test: GCV medicine test of the PBMCs in vitro (flow cytometry); assay type: cell-based, human; conditions: 400 μM GCV, 48 hours
Experimental: The peripheral blood of patients with the intractable AR is collected. The peripheral blood mononuclear cells (PBMCs) are isolated within 8 hours using a lymphocyte separation medium (MP biomedicals) and suspended in Roswell Park Memorial Institute (RPMI) 1640 medium (Gibco™) containing 10% heat-inactivated fetal bovine serum (Gibco™, Grand Island) and 1% penicillin and streptomycin (Gibco™) at a density of 1×10^6/mL. Three wells are set for each sample, including: a non treated well (also referred to as NT well), a well adding 1 microliter (μL) dimethyl sulfoxide (DMSO; Solarbio®) (also referred to as DMSO well), and a well adding 400 micromoles per liter (μM) of the GCV (diluted with DMSO, Selleck) (also referred to as GCV well). The PBMCs are cultured in a 24-well cell culture plate (Corning®, NY) under different stimulations in a 5% CO2, 37° C. cell incubator. According to the instructions of Leukocyte Activation Cocktail with BD GolgiPlug™ (BD Bioscience), the PBMCs are added to a cell culture medium 4-6 hours before dyeing to improve the dyeing effect of intracellular cytokines. After 48 hours of cell culture, the cell solution is collected and dyed with anti-human fixable viability stain 510 (FVS-BV510), brilliant violet 605 anti-human cluster of differentiation 4 antibody (CD4-BV605), and […] isothiocyanate isomer I (CD8-FITC), and then dyed with interleukin-4-brilliant violet™ 421 dyes (IL-4-BV421), interleukin-17A-phycoerythrin (IL-17A-PE), human interferon-gamma-PE-cyanine7 dye (IFNγ-PE-Cy7), and FOXP3-BB700 (all from BD Bioscience) after breaking the nucleus with a fixed nuclear breaker (eBioscience™). BD LSRFortessa™ X-20 (BD Biosciences, USA) and FlowJo™ software (FlowJo, Ashland, OR USA) are used for analysis.

[5] = GCV effective group and GCV ineffective group
[6] = PBMCs of GCV effective and ineffective groups

Nc1nc(O)c2ncn(COC(CO)CO)c2n1 [GCV, Ganciclovir]
all cytokines and inflammatory factors in nasal secretions, change after GCV treatment [1, 5]: do not change
IFN-β in nasal secretions, after treatment ([1]; GCV effective group, before 26.49 ± 26.34): 38.86 ± 54.29 pg/mL
IFN-α in nasal secretions, after treatment ([1]; GCV effective group, before 31.09 ± 28.65): 32.77 ± 23.83 pg/mL
IL-6 in nasal secretions, after treatment ([1]; GCV effective group, before 39.10 ± 34.59): 30.44 ± 27.04 pg/mL
IL-17A in nasal secretions, after treatment ([1]; GCV effective group, before 55.38 ± 27.4): 58.92 ± 43.93 pg/mL
IL-4 in nasal secretions, after treatment ([1]; GCV effective group, before 109.67 ± 23.95): 105.32 ± 25.44 pg/mL
IFN-γ in nasal secretions, after treatment ([1]; GCV effective group, before 181.83 ± 266.06): 120.24 ± 116.93 pg/mL
IL-5 in nasal secretions, after treatment ([1]; GCV effective group, before 197.49 ± 388.67): 134.24 ± 172.57 pg/mL
Eotaxin in nasal secretions, after treatment ([1]; GCV effective group, before 206.5 ± 212.85): 153.51 ± 101.87 pg/mL
IL-33 in nasal secretions, after treatment ([1]; GCV effective group, before 277.39 ± 303.34): 293.62 ± 396.68 pg/mL
IFN-λ in nasal secretions, after treatment ([1]; GCV effective group, before 313.99 ± 194.7): 331.23 ± 237.77 pg/mL
IL-13 in nasal secretions, after treatment ([1]; GCV effective group, before 455.81 ± 190.16): 397.80 ± 116.61 pg/mL
IL-28A in nasal secretions, after treatment ([1]; GCV effective group, before 718.08 ± 263.12): 740.68 ± 214.99 pg/mL
IL-2 in nasal secretions, after treatment ([1]; GCV effective group, before 148.69 ± 43.59): 132.85 ± 40.51 pg/mL
IFN-β in nasal secretions, after treatment ([1]; GCV ineffective group, before 19.58 ± 12.05): 17.86 ± 8.57 pg/mL
Eotaxin in nasal secretions, after treatment ([1]; GCV ineffective group, before 36.79 ± 25.41): 50.35 ± 47.92 pg/mL
IL-6 in nasal secretions, after treatment ([1]; GCV ineffective group, before 49.62 ± 10.4): 65.53 ± 44.86 pg/mL
IL-17A in nasal secretions, after treatment ([1]; GCV ineffective group, before 59.88 ± 40.6): 48.13 ± 18.73 pg/mL
IFN-γ in nasal secretions, after treatment ([1]; GCV ineffective group, before 106.77 ± 51.92): 80.25 ± 44.49 pg/mL
IFN-α in nasal secretions, after treatment ([1]; GCV ineffective group, before 129.83 ± 170.32): 57.51 ± 49.01 pg/mL
IL-4 in nasal secretions, after treatment ([1]; GCV ineffective group, before 151.81 ± 71.34): 116.44 ± 53.74 pg/mL
IL-5 in nasal secretions, after treatment ([1]; GCV ineffective group, before 218.52 ± 189.78): 70.26 ± 57.39 pg/mL
IFN-λ in nasal secretions, after treatment ([1]; GCV ineffective group, before 371.83 ± 248.73): 363.86 ± 203.72 pg/mL
IL-13 in nasal secretions, after treatment ([1]; GCV ineffective group, before 382.32 ± 104.87): 282.34 ± 55.29 pg/mL
IL-28A in nasal secretions, after treatment ([1]; GCV ineffective group, before 392.09 ± 218.69): 447.41 ± 202.35 pg/mL
IL-33 in nasal secretions, after treatment ([1]; GCV ineffective group, before 583.28 ± 515.20): 436.61 ± 500.63 pg/mL
IL-2 in nasal secretions, after treatment ([1]; GCV ineffective group, before 139.75 ± 59.26): 125.13 ± 58.88 pg/mL
ECP in nasal secretions, change after GCV treatment [2, 5]: no significant change
ECP in nasal secretions, after treatment ([2]; GCV effective group, before 42.38 ± 41.04): 20.18 ± 18.42 µg/mL
ECP in nasal secretions, after treatment ([2]; GCV ineffective group, before 82 ± 18.01): 45.993 ± 37.12 µg/mL
percentage of eosinophils in nasal secretions, change after GCV treatment [3, 5]: no significant change
Nasal secretion eosinophils, after treatment ([3]; GCV effective group, before 90.54 ± 6.24): 93.23 ± 11.99%
Nasal secretion eosinophils, after treatment ([3]; GCV ineffective group, before 56 ± 46.30): 54 ± 44.54%
percentage of CD4+IFNγ+ cells, change [4, 6]: no significant change
percentage of CD4+IL4+ cells, change [4, 6]: no significant change
percentage of CD4+IL17A+ cells, change [4, 6]: no significant change
percentage of CD8+IFNγ+ cells/CD4+, change [4, 6]: no significant change
percentage of CD4+FOXP3+ cells/CD4+ cells, GCV well vs DMSO well ([4]; PBMCs of GCV effective group n=26, p<0.001): significantly increased; also recorded: significantly higher
percentage of CD4+FOXP3+ cells/CD4+ cells, GCV well vs DMSO well ([4]; PBMCs of GCV ineffective group n=14, p<0.05): significantly lower
